Experimental data from US4217355A, “Amide therapeutic agents” (Pfizer Inc., priority 1978, dated 1980).

Experiments:
murine thymus cells = test: lymphocyte stimulation assay (LSA), in vitro lymphocyte proliferation of murine thymus cells cultured in the presence of Concanavalin A; type: cell-based, male C57B1/6 mice; details: in vitro; Con A present; 48 hours at 37° C.; score at drug level with maximum activity
Source text: On the other hand, the activity of the compounds of the present invention, as immunoregulator agents, is based on a study of their ability to stimulate, in vitro, the lymphocyte proliferation of murine thymus cells cultured in the presence of Concanavalin A (Con A) by employing the general evaluation procedure of V. J. Merluzzi et al., as described in the Journal of Clinical and Experimental Immunology, Vol. 22, p. 486 (1975).
486 (1975). The cells were derived from male C57B1/6 mice of from 6-8 weeks age, purchased from the Jackson Laboratories of Bar Harbor, Maine and the Con A was obtained from Sigma Chemicals of St. Louis, Missouri. Each cell culture (consisting of 0.10 ml. thymus cells stock solution, 0.05 ml. of Con A stock solution and 0.05 ml. of drug solution) was performed in quadruplicate and cellular proliferation was measured, after 48 hours of incubation at 37° C., by pulsing each culture with ^3 H-thymidine (0.01 ml. of specific activity 1.9 C/mM, obtained from Schwarz-Mann, Inc. of Orangeburg, N.Y.) and then determining the incorporation of ^3 H-thymidine into cellular desoxyribonucleic acid (DNA) by an assessment of radioactivity using a liquid scintillation counter.

[1] = system: carrageenin-induced edema in the hind paw; test: carrageenin-induced rat food edema test (inhibition of edema formation in the hind paw); type: in vivo, male albino rats; details: for % Inhibition of edema formation: 33 mg./kg., three hours after carrageenin injection
Description: A. Winter et al., Proc. Soc. Exp. Biol. Med., Vol. 111, p.
A. Winter et al., as earlier reported in the Proceedings of the Society of Experimental Biology and Medicine, Vol. 111, p. 544 (1962). In this test, anti-inflammatory activity is determined as the percent inhibition of edema formation in the hind paw of male albino rats (weighing 150-190 g.) in response to a sub-plantar injection of carrageenin. The carrageenin is injected as a 1% aqueous suspension (0.05 ml.) one hour after oral administration of the drug, which is normally given in the form of an aqueous solution. Edema formation is then assessed three hours after the carrageenin injection by measuring the volume of the injected paw initially as well as at the three-hour mark. The increase in volume three hours after carrageenin injection constitutes the individual response.
The following N-(2-thiazolyl)amides were tested for anti-inflammatory activity in rats, using the standard carrageen-ininduced rat food edema test, according to the procedure essentially described by C. A. Winter et al., as first reported in the Proceedings of the Society for Experimental Biology and Medicine, Vol. 111, p. 544 (1962). […]

[2] = system: inflammation in adrenalectomized animals; test: anti-inflammatory activity in adrenalectomized animals; type: in vivo, rats
Source text: As previously indicated, the N-(2-thiazolyl)amide compounds of the present invention are all readily adapted to therapeutic use as anti-inflammatory agents and as immunoregulators, particularly in view of their ability to reduce the swelling and relieve the pain caused by arthritic and other inflammatory disorders that are normally associated with such basic ailments as rheumatoid arthritis and the like. […] A. Winter et al., Proc. Soc. Exp. Biol. Med., Vol. 111, p.

SMILES | LSA Activity (murine thymus cells) | % Inhibition of edema formation (swelling) ([1]; rat, oral, 1.0 mg./kg.) [%] | % Inhibition of edema formation ([1]; rat, oral) [%] | oral dose levels at which the non-steroidal therapeutic effect is exhibited ([1]; rats, tested orally) [mg/kg] | anti-inflammatory activity in adrenalectomized animals [2]
O=C(CNCc1ccccc1)Nc1nccs1 [X=H, R1=H, R2=benzyl, N-(2-thiazolyl)-α-benzylaminoacetamide] | +++ (those having an activity greater than levamisole (27,000±1,000 cpm) were scored as +++) | 35 | 52 | 0.33 to 33 | retaining its extremely potent anti-inflammatory activity in adrenalectomized animals to a significantly high degree
O=C(Nc1nccs1)C1CCCCN1 (stereo not drawn) [X=H, R=2-piperidyl, N-(2-thiazolyl)piperidine-2-carboxamide] | +++ (those having an activity greater than levamisole (27,000±1,000 cpm) were scored as +++) | – | 55 | – | –
O=C(Nc1nccs1)C1CCCN1 (stereo not drawn) [X=H, R=2-pyrrolidinyl, N-(2-thiazolyl)pyrrolidine-2-carboxamide] | +++ (those having an activity greater than levamisole (27,000±1,000 cpm) were scored as +++) | – | 48 | – | –
